Literature values as cited in US9867391B2, “Accelerating muscle recovery after immobilization-induced muscle atrophy” (NESTEC S.A., priority 2011, dated 2018).

Tested on: muscle protein synthesis
Conditions: Kastanos et al. 2006

SMILES: CC(C)C[C@H](N)C(=O)O [leucine]
- muscle protein synthesis in young subjects (leucine added to the diet, young subjects): did not increased muscle protein synthesis
- muscle protein synthesis in elderly (same leucine supplementation, elderly): efficient
